Experimental data: ChEMBL document CHEMBL4837240 (J Med Chem, 2021)

Tests used:
[1] = molecular target: Platelet-derived growth factor receptor beta (Homo sapiens, UniProt P09619); assay: Inhibition of PDGFRbeta (unknown origin)
[2] = molecular target: Platelet-derived growth factor receptor alpha (Homo sapiens, UniProt P16234); assay: Inhibition of PDGFRalpha (unknown origin)
Platelet-derived growth factor receptor alpha, sequence (P16234 whole entry): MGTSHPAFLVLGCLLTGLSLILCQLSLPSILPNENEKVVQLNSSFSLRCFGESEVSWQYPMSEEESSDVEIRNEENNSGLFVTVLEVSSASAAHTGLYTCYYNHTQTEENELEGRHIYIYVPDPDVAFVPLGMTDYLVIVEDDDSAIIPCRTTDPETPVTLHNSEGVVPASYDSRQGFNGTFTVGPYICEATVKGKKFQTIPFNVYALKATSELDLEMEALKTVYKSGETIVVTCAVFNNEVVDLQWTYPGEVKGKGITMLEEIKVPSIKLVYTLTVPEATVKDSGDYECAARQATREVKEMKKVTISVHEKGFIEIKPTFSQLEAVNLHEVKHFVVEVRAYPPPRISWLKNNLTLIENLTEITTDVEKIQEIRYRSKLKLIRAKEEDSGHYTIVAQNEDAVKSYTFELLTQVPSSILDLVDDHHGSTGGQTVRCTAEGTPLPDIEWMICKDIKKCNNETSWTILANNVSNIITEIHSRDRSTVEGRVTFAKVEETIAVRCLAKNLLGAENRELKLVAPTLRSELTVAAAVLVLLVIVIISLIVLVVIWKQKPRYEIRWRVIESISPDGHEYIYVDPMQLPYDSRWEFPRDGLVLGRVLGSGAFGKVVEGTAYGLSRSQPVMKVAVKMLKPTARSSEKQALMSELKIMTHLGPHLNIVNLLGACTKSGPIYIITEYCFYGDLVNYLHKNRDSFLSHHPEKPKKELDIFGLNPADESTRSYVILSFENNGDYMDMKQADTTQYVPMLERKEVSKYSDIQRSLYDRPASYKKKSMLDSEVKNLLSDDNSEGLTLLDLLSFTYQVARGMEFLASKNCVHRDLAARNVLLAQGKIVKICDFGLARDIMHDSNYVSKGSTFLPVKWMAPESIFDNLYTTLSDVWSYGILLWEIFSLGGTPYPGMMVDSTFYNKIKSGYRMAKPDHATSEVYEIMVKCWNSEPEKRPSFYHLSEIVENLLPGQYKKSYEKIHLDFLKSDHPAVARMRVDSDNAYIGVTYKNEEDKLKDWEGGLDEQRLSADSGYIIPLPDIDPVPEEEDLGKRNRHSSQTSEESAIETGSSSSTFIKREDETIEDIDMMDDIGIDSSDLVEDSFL

Platelet-derived growth factor receptor beta, sequence (P09619 whole entry): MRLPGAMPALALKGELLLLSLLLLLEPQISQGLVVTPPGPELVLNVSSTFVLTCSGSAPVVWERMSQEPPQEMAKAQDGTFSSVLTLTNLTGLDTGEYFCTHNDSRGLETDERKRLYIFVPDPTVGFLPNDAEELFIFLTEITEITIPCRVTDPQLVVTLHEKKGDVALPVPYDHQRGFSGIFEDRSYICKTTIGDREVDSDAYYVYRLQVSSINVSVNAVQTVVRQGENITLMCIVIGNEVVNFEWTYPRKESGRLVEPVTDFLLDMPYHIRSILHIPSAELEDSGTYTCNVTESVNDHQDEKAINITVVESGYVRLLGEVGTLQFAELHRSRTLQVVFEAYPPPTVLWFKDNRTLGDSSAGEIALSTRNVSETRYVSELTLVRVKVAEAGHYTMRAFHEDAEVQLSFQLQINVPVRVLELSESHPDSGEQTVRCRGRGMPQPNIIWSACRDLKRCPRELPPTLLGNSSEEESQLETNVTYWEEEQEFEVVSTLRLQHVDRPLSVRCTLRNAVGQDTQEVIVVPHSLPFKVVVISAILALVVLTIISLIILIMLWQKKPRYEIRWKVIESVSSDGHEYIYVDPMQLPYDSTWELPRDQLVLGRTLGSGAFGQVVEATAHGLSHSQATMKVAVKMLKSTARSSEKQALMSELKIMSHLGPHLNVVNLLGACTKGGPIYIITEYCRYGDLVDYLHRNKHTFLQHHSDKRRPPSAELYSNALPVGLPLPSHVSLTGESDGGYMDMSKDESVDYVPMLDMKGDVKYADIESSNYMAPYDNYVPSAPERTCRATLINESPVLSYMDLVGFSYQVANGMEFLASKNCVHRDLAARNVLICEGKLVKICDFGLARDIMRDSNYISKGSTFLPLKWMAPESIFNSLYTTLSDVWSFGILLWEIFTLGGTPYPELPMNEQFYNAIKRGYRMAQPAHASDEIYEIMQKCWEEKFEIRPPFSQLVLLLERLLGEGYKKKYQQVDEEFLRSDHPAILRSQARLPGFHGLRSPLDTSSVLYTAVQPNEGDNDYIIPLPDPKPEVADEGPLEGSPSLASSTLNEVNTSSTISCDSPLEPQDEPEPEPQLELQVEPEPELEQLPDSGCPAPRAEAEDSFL

## COc1cc2nccc(Oc3ccc(NC(=O)NC4CC4)c(Cl)c3)c2cc1C(N)=O [LENVATINIB]
[1]
  IC50: 39 nM
[2]
  IC50: 51 nM
